# Biological target: T1, IRAK4 (Homo sapiens, UniProt Q9NWZ3)
# T1 construct: endogenous in cells; host or cells: OCI-LY10
# T1 sequence (Q9NWZ3 1-460): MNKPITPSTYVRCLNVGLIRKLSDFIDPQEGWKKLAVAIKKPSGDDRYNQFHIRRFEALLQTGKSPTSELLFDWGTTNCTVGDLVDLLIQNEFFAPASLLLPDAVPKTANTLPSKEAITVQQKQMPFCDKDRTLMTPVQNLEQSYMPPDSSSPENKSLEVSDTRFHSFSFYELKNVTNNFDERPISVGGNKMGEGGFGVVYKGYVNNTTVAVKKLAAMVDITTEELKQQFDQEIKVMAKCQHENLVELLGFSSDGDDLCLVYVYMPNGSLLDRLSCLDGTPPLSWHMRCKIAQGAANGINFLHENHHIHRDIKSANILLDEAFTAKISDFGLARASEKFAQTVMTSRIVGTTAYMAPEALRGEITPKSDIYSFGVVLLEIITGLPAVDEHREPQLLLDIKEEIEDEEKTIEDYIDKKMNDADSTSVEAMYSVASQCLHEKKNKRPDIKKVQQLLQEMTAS
# Test: IRAK4 MSD Degradation in OCI-LY10
# Type: cell-based
# Settings: OCI-LY10 cells, Meso Scale Discovery, incubated 4 to 24 hours
# Method in brief: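 IRAK4 degradation was quantified by Meso Scale electrochemiluminescence (anti-IRAK4 capture and detection antibodies) in lysates of treated OCI-LY10 cells. Compounds were dosed at 8 concentrations (1:3 dilutions, top 1 to 10 μM) for 4 to 24 h; DC50 derived by three-parameter logistic fitting.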
row,Compound,DC50
1,Cn1c(=O)n(C2CCC(=O)NC2=O)c2cccc(C3CCN(C[C@H]4CC[C@H](n5cc6cc(NC(=O)c7cnn8cc(C#N)cnc78)ccc6n5)CC4)CC3)c21 (stereo partly drawn) [I-95],< 10 nM
2,COc1cc2nn([C@H]3CC[C@H](CN(C)C4CCN(c5cccc6c(N7CCC(=O)NC7=O)cncc56)CC4)CC3)cc2cc1NC(=O)c1cccc(C(F)(F)F)n1 [I-96],< 10 nM
3,COc1cc2nn([C@H]3CC[C@H](CN4CCC(c5cccc6c(N7CCC(=O)NC7=O)cncc56)CC4)CC3)cc2cc1NC(=O)c1cccc(C(F)(F)F)n1 [I-97],< 10 nM
4,CN(C[C@H]1CC[C@H](n2cc3cc(NC(=O)c4cccc(C(F)(F)F)n4)ccc3n2)CC1)C1CCN(c2cccc3c(N4CCC(=O)NC4=O)cncc23)CC1 [I-98],> 200 nM
5,Cc1ccc2c(c1C1CCN(C[C@H]3CC[C@H](n4cc5cc(NC(=O)c6cccc(C(F)(F)F)n6)ccc5n4)CC3)CC1)n(C)c(=O)n2C1CCC(=O)NC1=O (stereo partly drawn) [I-99],< 10 nM
6,COc1cc2nn([C@H]3CC[C@H](CN(C)C4CCN(c5cccc6c5n(C)c(=O)n6C5CCC(=O)NC5=O)CC4)CC3)cc2cc1-n1cc(-c2cccc(C(F)(F)F)n2)nn1 (stereo partly drawn) [I-100],> 200 nM
7,COc1cc2nn([C@H]3CC[C@H](CN4CCC(c5c(F)ccc6c5n(C)c(=O)n6C5CCC(=O)NC5=O)CC4)CC3)cc2cc1NC(=O)c1cccc(C(F)(F)F)n1 (stereo partly drawn) [I-101],< 10 nM
8,"COc1ccc2c(c1C1CCN(C[C@H]3CC[C@H](n4cc5cc(NC(=O)c6cccc(C(F)(F)F)n6)ncc5n4)CC3)CC1)n(C)c(=O)n2C1CCC(=O)NC1=O (stereo partly drawn) [I-104, N-[2-[4-[[4-[1-[(3S)-2,6-dioxo-3-piperidyl]-5-methoxy-3-methyl-2-oxo-benzimidazol-4-yl]-1-piperidyl]methyl]cyclohexyl]pyrazolo[3,4-c]pyridin-5-yl]-6-(trifluoromethyl)pyridine-2-carboxamide]",< 10 nM
9,CN(C)c1cc2nn([C@H]3CC[C@H](CN4CCC(c5cccc6c5n(C)c(=O)n6C5CCC(=O)NC5=O)CC4)CC3)cc2cc1NC(=O)c1cccc(C(F)(F)F)n1 (stereo partly drawn) [I-107],< 10 nM
10,COc1cc2nn([C@H]3CC[C@H](CN(C)C4CCN(c5cccc6c5n(C)c(=O)n6C5CCC(=O)NC5=O)CC4)CC3)cc2cc1NC(=O)n1ccc2cccnc21 (stereo partly drawn) [I-113],< 10 nM
11,CC(C)Nc1cc(-n2ccc3cc(C#N)cnc32)ncc1C(=O)N[C@H]1CC[C@H](CN2CCC(c3cccc4c3n(C)c(=O)n4C3CCC(=O)NC3=O)CC2)CC1 (stereo partly drawn) [I-114],< 10 nM
12,COc1ccc2c(c1C1CCN(C[C@H]3CC[C@H](n4cc5cc(NC(=O)c6cncc(Cl)c6)ccc5n4)CC3)CC1)n(C)c(=O)n2C1CCC(=O)NC1=O (stereo partly drawn) [I-116],100 to 200 nM
13,CC(C)Nc1cc(-n2ccc3cc(C#N)cnc32)ncc1C(=O)N[C@H]1CC[C@H](CN(C)C2CCN(c3cccc4c3n(C)c(=O)n4C3CCC(=O)NC3=O)CC2)CC1 (stereo partly drawn) [I-118],< 10 nM
14,COc1cc2nn([C@H]3C[C@H](CN4CCC(c5ccc6c(N7CCC(=O)NC7=O)cncc6c5)CC4)C3)cc2cc1NC(=O)c1cccc(C(F)(F)F)n1 [I-119],> 200 nM
15,COc1cc2nn([C@H]3CC[C@H](CN4CCC(c5cccc6c(N7CCC(=O)NC7=O)cncc56)CC4)CC3)cc2cc1NC(=O)c1cncc(C#N)c1 [I-121],10 to 50 nM
16,COc1cc2nn([C@H]3CC[C@H](CN4CCC(c5ccc6c(N7CCC(=O)NC7=O)cncc6c5)CC4)CC3)cc2cc1NC(=O)c1cncc(C#N)c1 [I-122],100 to 200 nM
17,COc1cc2nn([C@H]3CC[C@H](CN4CCC(c5cccc6c(N7CCC(=O)NC7=O)cncc56)CC4)CC3)cc2cc1NC(=O)c1cc(F)cc(C(F)(F)F)c1 [I-123],10 to 50 nM
18,COc1cc2nc([C@H]3CC[C@H](CN4CCC(c5ccc6c(N7CCC(=O)NC7=O)cncc6c5)CC4)CC3)sc2cc1NC(=O)c1cccc(C(F)(F)F)n1 [I-125],< 10 nM
19,CC(C)Nc1cc(-n2ccc3cc(C#N)cnc32)ncc1C(=O)N[C@H]1CC[C@H](CN2CCC(c3ccc4c(N5CCC(=O)NC5=O)cncc4c3)CC2)CC1 [I-127],10 to 50 nM
20,Cn1c(=O)n(C2CCC(=O)NC2=O)c2ccc(F)c(C3CCN(C[C@H]4CC[C@H](n5cc6cc(NC(=O)c7cccc(C#N)n7)ccc6n5)CC4)CC3)c21 (stereo partly drawn) [I-128],< 10 nM
21,COc1cc2nn([C@H]3CC[C@H](CN(C)C4CCN(c5cccc6c5n(C)c(=O)n6C5CCC(=O)NC5=O)CC4)CC3)cc2cc1NC(=O)c1cncc(C(F)(F)F)c1 (stereo partly drawn) [I-130],< 10 nM
22,COc1cc2nn([C@H]3CC[C@H](CN(C)C4CCN(c5cccc6c5n(C)c(=O)n6C5CCC(=O)NC5=O)CC4)CC3)cc2cc1NC(=O)c1cc(F)cc(C(F)(F)F)c1 (stereo partly drawn) [I-131],10 to 50 nM
23,COc1cc2nn([C@H]3CC[C@H](CN4CCC(c5cccc6c5n(C)c(=O)n6C5CCC(=O)NC5=O)CC4)CC3)cc2cc1NC(=O)c1cc(F)cc(C(F)(F)F)c1 (stereo partly drawn) [I-132],< 10 nM
24,COc1cc2nn([C@H]3CC[C@H](CN4CCC(c5cccc6c5n(C)c(=O)n6C5CCC(=O)NC5=O)CC4)CC3)cc2cc1NC(=O)c1cnc(C)c(Cl)c1 (stereo partly drawn) [I-134],> 200 nM
25,COc1cc2nn([C@H]3C[C@H](CN4CCC(c5c(C)ccc6c5n(C)c(=O)n6C5CCC(=O)NC5=O)CC4)C3)cc2cc1NC(=O)c1cccc(C(F)(F)F)n1 (stereo partly drawn) [I-137],< 10 nM
26,COc1cc2nn([C@H]3C[C@H](CN4CCC(c5c(OC)ccc6c5n(C)c(=O)n6C5CCC(=O)NC5=O)CC4)C3)cc2cc1NC(=O)c1cccc(C(F)(F)F)n1 (stereo partly drawn) [I-138],< 10 nM
27,Cn1c(=O)n(C2CCC(=O)NC2=O)c2cccc(C3CCN(C[C@H]4C[C@H](n5cc6cc(NC(=O)c7cccc(C(F)(F)F)n7)ccc6n5)C4)CC3)c21 (stereo partly drawn) [I-140],100 to 200 nM
28,COc1cc2nn([C@H]3C[C@H](CN4CCC(c5c(F)ccc6c5n(C)c(=O)n6C5CCC(=O)NC5=O)CC4)C3)cc2cc1NC(=O)c1cccc(C(F)(F)F)n1 (stereo partly drawn) [I-141],10 to 50 nM
29,Cn1c(=O)n(C2CCC(=O)NC2=O)c2ccc(F)c(C3CCN(C[C@H]4C[C@H](n5cc6cc(NC(=O)c7cccc(C(F)(F)F)n7)c(Cl)cc6n5)C4)CC3)c21 (stereo partly drawn) [I-142],10 to 50 nM

# Results, then the compound that gave them:
row,DC50,Compound
1,> 200 nM,"Cn1c(=O)n(C2CCC(=O)NC2=O)c2cccc(C3CCN(C(=O)[C@H]4CC[C@H](n5cc6cc(NC(=O)c7cccc(C(F)(F)F)n7)ccc6n5)CC4)CC3)c21 (stereo partly drawn) [I-94, N-[2-[4-[4-[1-(2,6-dioxo-3-piperidyl)-3-methyl-2-oxo-benzimidazol-4-yl]piperidine-1-carbonyl]cyclohexyl]indazol-5-yl]-6-(trifluoromethyl)pyridine-2-carboxamide]"
2,< 10 nM,Cc1ccc2c(c1C1CCN(C[C@H]3CC[C@H](n4cc5cc(NC(=O)c6cccc(C(F)(F)F)n6)ncc5n4)CC3)CC1)n(C)c(=O)n2C1CCC(=O)NC1=O (stereo partly drawn) [I-102]
3,10 to 50 nM,O=C1CCN(c2cncc3c(C4CCN(C[C@H]5CC[C@H](n6cc7cc(NC(=O)c8cccc(C(F)(F)F)n8)ncc7n6)CC5)CC4)cccc23)C(=O)N1 [I-103]
4,50 to 100 nM,CC(C)Nc1cc(-n2ccc3cc(C#N)cnc32)ncc1C(=O)NC[C@H]1CC[C@H](CN(C)C2CCN(c3cccc4c3n(C)c(=O)n4C3CCC(=O)NC3=O)CC2)CC1 (stereo partly drawn) [I-105]
5,10 to 50 nM,Cn1c(=O)n(C2CCC(=O)NC2=O)c2ccc(Cl)c(C3CCN(C[C@H]4CC[C@H](n5cc6cc(NC(=O)c7cccc(C(F)(F)F)n7)ccc6n5)CC4)CC3)c21 (stereo partly drawn) [I-106]
6,< 10 nM,COc1cc2nn([C@H]3CC[C@H](CN4CCC(c5c(C)ccc6c5n(C)c(=O)n6C5CCC(=O)NC5=O)CC4)CC3)cc2cc1NC(=O)c1cncc(C(F)(F)F)c1 (stereo partly drawn) [I-108]
7,< 10 nM,COc1cc2nn([C@H]3CC[C@H](CN4CCC(c5c(C)ccc6c5n(C)c(=O)n6C5CCC(=O)NC5=O)CC4)CC3)cc2cc1NC(=O)c1cncc(C#N)c1 (stereo partly drawn) [I-109]
8,< 10 nM,COc1cc2nn([C@H]3CC[C@H](CN4CCC(c5c(C)ccc6c5n(C)c(=O)n6C5CCC(=O)NC5=O)CC4)CC3)cc2cc1NC(=O)c1cncc(Cl)c1 (stereo partly drawn) [I-110]
9,< 10 nM,COc1cc2nn([C@H]3CC[C@H](CN4CCC(c5c(OC)ccc6c5n(C)c(=O)n6C5CCC(=O)NC5=O)CC4)CC3)cc2cc1NC(=O)c1cncc(Cl)c1 (stereo partly drawn) [I-111]
10,< 10 nM,COc1cc2nn([C@H]3CC[C@H](CN4CCC(c5cccc6c5n(C)c(=O)n6C5CCC(=O)NC5=O)CC4)CC3)cc2cc1NC(=O)n1ccc2cccnc21 (stereo partly drawn) [I-112]
11,> 200 nM,CC(C)Nc1cc(-n2ccc3cc(C#N)cnc32)ncc1C(=O)N1CCC(CN(C)C2CCN(c3cccc4c3n(C)c(=O)n4C3CCC(=O)NC3=O)CC2)CC1 (stereo not drawn) [I-115]
12,50 to 100 nM,COc1cc2nn([C@H]3CC[C@H](CN(C)C4CCN(c5cccc6c(N7CCC(=O)NC7=O)cncc56)CC4)CC3)cc2cc1NC(=O)c1cncc(Cl)c1 [I-117]
13,< 10 nM,Cn1c(=O)n(C2CCC(=O)NC2=O)c2cccc(C3CCN(C[C@H]4CC[C@H](n5cc6cc(NC(=O)n7ccc8cc(C#N)cnc87)ccc6n5)CC4)CC3)c21 (stereo partly drawn) [I-129]
14,> 200 nM,COc1cc2nn([C@H]3CC[C@H](CN4CCC(c5cccc6c5n(C)c(=O)n6C5CCC(=O)NC5=O)CC4)CC3)cc2cc1NC(=O)c1cc(Cl)cnn1 (stereo partly drawn) [I-135]
15,> 200 nM,COc1cc2nn([C@H]3CC[C@H](CN4CCC(c5cccc6c5n(C)c(=O)n6C5CCC(=O)NC5=O)CC4)CC3)cc2cc1NC(=O)c1cnc(C#N)c(Cl)c1 (stereo partly drawn) [I-136]
16,10 to 50 nM,CN(C[C@H]1C[C@H](n2cc3cc(NC(=O)c4cccc(C(F)(F)F)n4)c(C(F)F)cc3n2)C1)C1CCN(c2cccc3c2n(C)c(=O)n3C2CCC(=O)NC2=O)CC1 (stereo partly drawn) [I-139]

# Source: patent publication US12150995B2, “IRAK degraders and uses thereof” (Kymera Therapeutics, Inc., priority 2020, dated 2024)
